What was measured:
Human 5-HT6 receptor = biological target: T1, Human 5-HT6 receptor (Homo sapiens, UniProt P50406); assay: Nova Screen binding assay for human 5-HT6 receptor ([3H]LSD); details: Human recombinant receptor expressed in HEK-293 cells; [3H]LSD 1.5 nM; 60 minutes at 37° C.
T1 construct: host or cells: HEK-293
Protocol: Nova Screen Binding Assay for Human 5-HT6 Receptor
Pharmacological data Compounds can be tested according to the following the procedures.
Receptor source: Human recombinant expressed in HEK-293 cells
Radioligand: [^3H]LSD (60-80 Ci/mmol)
Final ligand concentration—[1.5 nM]
Non-specific determinant: Methiothepin mesylate—[0.1 μM]
Reference compound: Methiothepin mesylate
Positive control: Methiothepin mesylate
Incubation conditions: Reactions were carried out in 50 mM TRIS HCl (pH 7.4) containing 10 mM MgCl2, 0.5 mM EDTA for 60 minutes at 37° C. The reaction was terminated by rapid vacuum filtration onto glass fiber filters. Radioactivity trapped onto the filters was determined and compared to control values in order to ascertain any interactions of test compound(s) with the cloned serotonin-5HT6 binding site.
Mol. Pharmacol. (43): 320-327 (1993).

T1 sequence (P50406 whole entry): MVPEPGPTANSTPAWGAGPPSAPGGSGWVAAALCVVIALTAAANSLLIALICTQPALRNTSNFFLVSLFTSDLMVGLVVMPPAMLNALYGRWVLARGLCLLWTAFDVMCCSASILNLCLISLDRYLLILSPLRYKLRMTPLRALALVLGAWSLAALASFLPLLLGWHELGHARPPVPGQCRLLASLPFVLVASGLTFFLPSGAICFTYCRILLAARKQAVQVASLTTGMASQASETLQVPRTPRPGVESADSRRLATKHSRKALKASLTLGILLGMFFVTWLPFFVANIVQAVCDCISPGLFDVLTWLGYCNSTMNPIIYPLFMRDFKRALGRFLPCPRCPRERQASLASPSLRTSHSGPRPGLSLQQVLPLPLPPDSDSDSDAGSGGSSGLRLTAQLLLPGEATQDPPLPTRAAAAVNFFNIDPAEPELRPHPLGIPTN

SMILES | melting point [°C] | IC50 (Human 5-HT6 receptor) [nM] | Ki (Human 5-HT6 receptor) [nM]
CC(C)c1ccc(S(=O)(=O)n2c3c(c4cc(Br)ccc42)CC(N(C)C)CC3)cc1 (stereo not drawn) | 152.75 to 154.98 |  | 
COc1ccc2c(c1)c1c(n2S(=O)(=O)c2ccc(F)cc2)CCC(N(C)C)C1 (stereo not drawn) [Example 30, [6-Methoxy-9-(4-fluorobenzenesulfonyl)-2,3,4,9-tetrahydro-1H-carbazol-3-yl]dimethylamine] | 160.7 to 163.4 | 52.3 | 24.3
CN(C)C1CCc2c(c3cc(Br)ccc3n2S(=O)(=O)c2ccccc2Br)C1 (stereo not drawn) [Example 14, [6-Bromo-9-(2-bromobenzenesulphonyl)-2,3,4,9-tetrahydro-1H-carbazol-3-yl]dimethylamine] | 158.78 to 161.04 |  | 
CN(C)C1CCc2c(c3ccccc3n2S(=O)(=O)c2ccc(F)cc2)C1 (stereo not drawn) [Example 3, 9-[(4-Fluorobenzenesulphonyl)-2,3,4,9-tetrahydro-1H-carbazol-3-yl]dimethylamine] | 130.2 to 132.8 | 27 | 12.5
Cc1ccc(S(=O)(=O)n2c3c(c4cc(Cl)ccc42)CC(N(C)C)CC3)cc1 (stereo not drawn) | 130 to 138 |  | 
COc1ccc2c(c1)c1c(n2S(=O)(=O)c2ccc(C)cc2)CCC(N(C)C)C1 (stereo not drawn) [Example 27, [6-Methoxy-9-(4-methylbenzenesulfonyl)-2,3,4,9-tetrahydro-1H-carbazol-3-yl]dimethylamine] | 131.8 to 140 | 11.7 | 5.89
CSc1ccc2c(c1)c1c(n2S(=O)(=O)c2ccc(F)cc2)CCC(N(C)C)C1 (stereo not drawn) [Example 35] | 148.9 to 156.1 | 47.1 | 24.9
Cc1ccc(S(=O)(=O)n2c3c(c4cc(F)ccc42)CC(N(C)C)CC3)cc1 (stereo not drawn) [Example 22, [6-Fluoro-9-(4-methylbenzenesulfonyl)-2,3,4,9-tetrahydro-1H-carbazol-3-yl]dimethylamine] | 148.8 to 153 | 64.3 | 32.4
CN(C)C1CCc2c(c3cc(Cl)ccc3n2S(=O)(=O)c2ccccc2)C1 (stereo not drawn) | 150 to 155 |  | 
CN(C)C1CCc2c(c3cc(Br)ccc3n2S(=O)(=O)c2ccc(F)cc2)C1 (stereo not drawn) [Example 11, [6-Bromo-9-(4-fluorobenzenesulphonyl)-2,3,4,9-tetrahydro-1H-carbazol-3-yl]dimethylamine] | 158.1 to 160 | 20.2 | 9.42

Results, then the molecule that gave them:

melting point [°C] | IC50 (Human 5-HT6 receptor) [nM] | Ki (Human 5-HT6 receptor) [nM] | SMILES
150 to 155 |  |  | CN(C)C1CCc2c(c3cc(Cl)ccc3n2S(=O)(=O)c2ccc(F)cc2)C1 (stereo not drawn) [Example 20, [6-Chloro-9-(4-fluorobenzenesulfonyl)-2,3,4,9-tetrahydro-1H-carbazol-3-yl]dimethylamine]
105.2 to 115 | 26.1 | 13.8 | CSc1ccc2c(c1)c1c(n2S(=O)(=O)c2ccc(C)cc2)CCC(N(C)C)C1 (stereo not drawn) [Example 33, [6-Methylthio-9-(4-methylbenzenesulfonyl)-2,3,4,9-tetrahydro-1H-carbazol-3-yl]dimethylamine]
189 to 192 |  |  | CN(C)C1CCc2c(c3cc(Br)ccc3n2S(=O)(=O)c2cccc(Cl)c2Cl)C1 (stereo not drawn) [Example 39, [6-Bromo-9-(2,3-dichlorobenzenesulphonyl)-2,3,4,9-tetrahydro-1H-carbazol-3-yl]dimethylamine]
147.5 to 151.2 | 63.5 | 32.8 | CN(C)C1CCc2c(c3cc(F)ccc3n2S(=O)(=O)c2ccc(F)cc2)C1 (stereo not drawn) [Example 25, [6-Fluoro-9-(4-fluorobenzenesulfonyl)-2,3,4,9-tetrahydro-1H-carbazol-3-yl]dimethylamine]
127.7 to 130.3 | 30.5 | 15.7 | CN(C)C1CCc2c(c3cc(F)ccc3n2S(=O)(=O)c2ccccc2)C1 (stereo not drawn) [Example 21, [6-Fluoro-9-benzenesulfonyl-2,3,4,9-tetrahydro-1H-carbazol-3-yl]dimethylamine]
144 to 146 |  |  | COc1ccc2c(c1)c1c(n2S(=O)(=O)c2cccc(C(F)(F)F)c2)CCC(N(C)C)C1 (stereo not drawn) [Example 31, [6-Methoxy-9-(3-trifluoromethylbenzenesulfonyl)-2,3,4,9-tetrahydro-1H-carbazol-3-yl]dimethylamine]
95.4 to 103.8 | 33.4 | 15.5 | CC(C)c1ccc(S(=O)(=O)n2c3c(c4cc(F)ccc42)CC(N(C)C)CC3)cc1 (stereo not drawn) [Example 23, [6-Fluoro-9-(4-isopropylbenzenesulfonyl)-2,3,4,9-tetrahydro-1H-carbazol-3-yl]dimethylamine]
 | 10.8 | 5.44 | COc1ccc2c(c1)c1c(n2S(=O)(=O)c2ccccc2)CCC(N(C)C)C1 (stereo not drawn) [Example 26, [6-Methoxy-9-benzenesulfonyl-2,3,4,9-tetrahydro-1H-carbazol-3-yl]dimethylamine]
173.2 to 173.8 | 28.9 | 15.1 | COc1ccc2c(c1)c1c(n2S(=O)(=O)c2ccc(Br)cc2)CCC(N(C)C)C1 (stereo not drawn) [Example 29, [6-Methoxy-9-(4-bromobenzenesulfonyl)-2,3,4,9-tetrahydro-1H-carbazol-3-yl]dimethylamine]
170.6 to 174.1 | 99.7 | 43.5 | CN(C)C1CCc2c(c3cc(F)ccc3n2S(=O)(=O)c2ccc(Br)cc2)C1 (stereo not drawn) [Example 24, [6-Fluoro-9-(4-bromobenzenesulfonyl)-2,3,4,9-tetrahydro-1H-carbazol-3-yl]dimethylamine]

Source: patent US8143303B2, “Carbazole derivatives as functional 5-HT6 ligands” (Suven Life Sciences Limited, priority 2005, dated 2012)
